{"source": "patent US9944721B2", "about": "“Polysialic acid and use for treatment of neurodegenerative and neuroinflammatory diseases” (RHEINISCHE FRIEDRICH-WILHELMS UNIVERSITÄT BONN, priority 2013, dated 2018)", "key": {"[1]": {"test_system": "LPS-activated human microglia", "test": "LPS-induced TNF-alpha gene transcription in human microglia (qRT-PCR)", "format": "cell-based", "conditions": "LPS 1 μg/ml, 24 hours", "procedure": "To analyse whether polysialic acid might interfere with a pro-inflammatory phenotype of human microglia, cultured human microglia were activated with lipopolysaccharides (LPS) and the effect of the distinct sialic acid forms including fractions of oligosialic and polysialic acid on the gene transcription of the pro-inflammatory cytokine tumor necrosis factor-alpha induced by the bacterial toxin LPS was determined. A human microglial line derived from induced pluripotent stem cells as described in WO 2010/125110 was used to study the effect of sialic acid forms with different chain length. Human microglial cells were cultured on 5 μg/ml poly-L-lysin (PLL, Sigma)-coated dishes in N2-medium containing DMEM/F12 culture medium (Gibco) supplemented with 1% N2 (Invitrogen), 0.48 mM L-glutamine (Gibco) and optionally 100 μg/ml penicillin/streptomycin (Gibco). Cells were cultured with high density and splitted 1:2 when required. The human induced pluripotent stem cell derived microglia line was treated with lipopolysaccharides (LPS, 1 μg/ml, Invivogen) and sialic acid forms with different chain length for 24 hours. Gene transcripts for tumor necrosis factor-α (TNF-alpha) were determined by quantitative RT-PCR and normalized to GAPDH. In detail, RNA isolation was performed using RNeasy Mini Kit (Qiagen) and transcription with the SuperScript First-Strand Synthesis System (Invitrogen). Quantitative RT-PCR with specific oligonucleotides (GAPDH: […] (SEQ ID NO: 1) and […] (SEQ ID NO: 2); TNFα: […] (SEQ ID NO: 3) and […] (SEQ ID NO: 4)) was performed using SYBR green PCR Master Mix with the Mastercycler epgradients S (Eppendorf). Results were normalized to GAPDH. Quantification using the delta-CT method was carried out."}, "[2]": {"test": "Biotinylated PSA-20 in serum and brain after intraperitoneal application (ELISA)", "format": "in vivo, mice", "procedure": "First, PSA-20 was conjugated with biotin and a sensitive ELISA to detect biotinylated PSA-20 was established. The PSA-20 was coupled with a biotin molecule at the sixth carbon atom of sialic acid at the terminus of the PSA-20 chains. Therefore, the terminus of PSA-20 was oxidized to an aldehyde by sodium metaperiodate. Afterwards, hydrazide coupled biotin was conjugated at room temperature to the aldehyde group to form a hydrazone bond. Purification was carried out with a desalting column (HiTrap Desalting Column GE Healthcare).\nBiotin-conjugated PSA-20 (10 μg per g body weight) was applied in adult mice by intraperitoneal application. An ELISA method was used to detect biotinylated PSA-20 in the serum and brain. For the ELISA, NeutrAvidin coated pre-blocked plates (Thermo Scientific) were washed three times with PBST (PBS+0.05% Tween-20). After washing, plasma and brain homogenate as well as defined concentrations of biotinylated PSA-20 as standard were applied for 1 h at room temperature. Plates were washed three times and were incubated with a monoclonal antibody directed against oligosialic acids (rat-anti-mouse CD56, BD Pharmingen #556325) over night at 4° C. The following day the plate were washed three times and incubated with goat anti-mouse immunoglobulin conjugated with peroxidase-HRP (Jackson ImmunoResearch). Then, plates were washed and incubated with 100 μl TMB-reagent for 30 min at room temperature. The reaction was stopped by addition of 100 μl 1N HCl and the signal was detected with an ELISA reader.\nSerum and brain tissue of one mouse was analyzed before application and at 0.5, 1, 2, 4 and 8 hours after application. The highest PSA-20 level was detected in the serum at 0.5 hours and in the brain at 2 hours. The half-time of PSA-20 in the serum and in the brain was estimated to be between 2 and 3 hours. The bioavailability of PSA-20 in the brain in relation to the serum was estimated to be between 1 and 3%. […] As can be taken from the FIG. 10C, PSA-20 was detected in the serum and the brain. […]"}, "[3]": {"test_system": "humanized Siglec-11 transgenic mice", "test": "Experimental autoimmune encephalomyelitis (animal model of multiple sclerosis)", "format": "in vivo", "procedure": "Experimental autoimmune encephalomyelitis was induced in humanized Siglec-11 transgenic mice (humanized Siglec-11 mouse) and littermate control mice (normal control mice). Therefore, adult 6-8 weeks-old female humanized Siglec-11 transgenic mice (Wang et al. 2009, dissertation, University Bonn, uniform resource name: urn:nbn:de:hbz:5N-18095) and littermate control mice were immunized with 100 μg of myelin oligodendrocyte glycoprotein MOG (amino acids 35-55; Seqlab) in […] Freunds adjuvant (both DIFCO; BD GmbH, Heidelberg, Germany). Pertussis toxin (200 ng; List Biological Laboratories, Epsom, UK) was injected on days 0 and 2 of immunization. Clinical signs were scored as following: 0, no clinical signs; 1, complete limp tail; 2, complete limp tail and weakness of hindlimbs; 3, paraparesis of at least one hindlimb; 4, complete hindlimb paraparesis and weakness of forelimbs; and 5, fore- and hindlimb paralysis or moribund. Only mice having disease onset (clinical score of >=1) until day 20 were used for experiments.\nLow molecular weight PSA-20 (1 μg per g body weight) was applied intraperitoneally into the mice on the day of disease onset (clinical score at least 1) and daily on the following three consecutive days. […] The cumulative disease score from the first day of treatment until day 25 was determined."}, "[4]": {"test_system": "human microglia", "test": "Microglial phagocytosis of fluorescently labeled neural debris", "format": "cell-based", "conditions": "1 hour pre-incubation, untreated 32%+/−0.02", "procedure": "The human microglia were challenged with fluorescently labeled neural debris and the uptake of the debris into the cells was determined by confocal microscopy and 3D-reconstruction.\nTo receive debris, neural stem cells were incubated with 40 nM okadaic acid (Sigma) for 24 hours. Then, cellular debris was collected and centrifuged. Debris was washed with PBS and stained with “Dil Derivatives for Long-Term Cellular Labeling” Molecular Probes (Invitrogen) according to the supplier's manual. Microglial cells were pre-incubated for 1 hour with concentration of 0.15 μM, 0.5 μM or 1.5 μM PSA-20 followed by 1 hour of incubation with 5 μg/ml prestained neural debris. Cells were fixed and incubated with an anti-iba1 antibody (Wako, Japan) followed by a secondary Alexa488-conjugated antibody (Molecular probes). For analysis images were randomly scanned and 3D-reconstructions were obtained by a confocal laser scanning microscope (Fluoview 1000, Olympus). To determine the ratio of cells having ingested fluorescently labeled material, six images per experiment group were obtained and all cells on the images were quantified using Image J software (NIH)."}, "[5]": {"conditions": "biotin-conjugated PSA-20, 10 μg per g body weight i.p., adult mice"}}}
{"substance": "poly-(α(2→8)Neu5Ac)n [PSA-20]", "values": [{"measurement": "LPS-induced gene transcription of TNF-alpha", "setting": "[1]; 0.15 μM, 0.5 μM and 1.5 μM, FIG. 3", "value": "reduced"}, {"measurement": "Anti-inflammatory effect on TNF-alpha of LPS-activated human microglia", "setting": "[1]; summary of Example 4", "value": "Yes"}, {"measurement": "passage of the blood-brain barrier", "setting": "[2]; after systemic application", "value": "passed the blood-brain barrier"}, {"measurement": "time of peak concentration in the brain", "setting": "[2]; [5]", "value": 2, "unit": "h"}, {"measurement": "time of peak concentration in the serum", "setting": "[2]; [5]", "value": 0.5, "unit": "h"}, {"measurement": "clinical signs (clinical score)", "setting": "[3]; Siglec-11 transgenic mice, 1 μg per g body weight i.p. from disease onset, 4 days, from day 14 onwards, FIG. 8A", "value": "improved clinical signs"}, {"measurement": "cumulative disease score", "setting": "[3]; first day of treatment until day 25, FIG. 8B", "value": "improved the clinical signs of disease"}, {"measurement": "percentage of microglia having ingested neural debris", "setting": "[4]; 0.5 μM", "value": 25, "unit": "%+/−0.02"}, {"measurement": "percentage of microglia having ingested neural debris", "setting": "[4]; 1.5 μM", "value": 22, "unit": "%+/−0.01"}]}
